Earlier results on 2 molecules are cited in article PMC4716540 (British Journal of Cancer, 2015).

Molecules are shown by their SMILES.

This data set relates to haematological and solid tumours. Particulars: early clinical trials; ref Zhou et al, 2012; cited from earlier work.

On to `CC1(C)CC(=O)c2c(C(F)(F)F)nn(-c3ccc(C(N)=O)c(N[C@H]4CC[C@H](OC(=O)CN)CC4)c3)c2C1` [SNX-5422], for which the “Visual disorders (blurred vision, flashes, delayed light/dark accommodation, photophobia)” value is given as “associated with visual disorders”. In the case of `CO[C@H]1/C=C\C=C(/C)C(=O)NC2=CC(=O)C(NCCN(C)C)=C(C[C@@H](C)C[C@H](OC)[C@H](O)[C@@H](C)/C=C(\C)[C@@H]1OC(N)=O)C2=O` [alvespimycin], the “Visual disorders (blurred vision, flashes, delayed light/dark accommodation, photophobia)” value is recorded as “associated with visual disorders”.
